In patent US10568950B1, “Peptides, combination of peptides and scaffolds for use in immunotherapeutic treatment of various cancers” (Immatics Biotechnologies GmbH, priority 2015, dated 2020):

Legend:
[1] = system: CD8+ T cells of healthy HLA-A*24+ donors; assay: In vitro immunogenicity: priming of CD8+ T cells with aAPCs loaded with HLA-A*24/peptide complexes and anti-CD28, multimer staining; type: cell-based, human; details: in vitro immunogenicity, HLA-A*24 peptides of Table 12B
Protocol: CD8+ T cells were primed using artificial APCs coated with anti-CD28 mAb and HLA-A*24 in complex with SEQ ID NO: 99 peptide (FIG. 5A, left panel), SEQ ID NO: 119 peptide (FIG. 5B, left panel), SEQ ID NO: 142 peptide (FIG. 5C, left panel) and SEQ ID NO: 174 peptide (FIG. 5D, left panel), respectively. After three cycles of stimulation, the detection of peptide-reactive cells was performed by 2D multimer staining with A*24/SEQ ID NO: 99 (A), A*24/SEQ ID NO: 119 (B), A*24/SEQ ID NO: 142 (C) or A*24/SEQ ID NO: 174 (D). Right panels (FIGS. 5A, 5B, 5C and 5D) show control staining of cells stimulated with irrelevant A*24/peptide complexes. Viable singlet cells were gated for CD8+ lymphocytes. Boolean gates helped excluding false-positive events detected with multimers specific for different peptides. Frequencies of specific multimer+ cells among CD8+ lymphocytes are indicated.
(§1) In order to obtain information regarding the immunogenicity of the TUMAPs of the present invention, the inventors performed investigations using an in vitro T-cell priming assay based on repeated stimulations of CD8+ T cells with artificial antigen presenting cells (aAPCs) loaded with peptide/MHC complexes and anti-CD28 antibody.
(§2) PBMCs and isolated CD8+ lymphocytes were incubated in T-cell medium (TCM) until use consisting of RPMI-Glutamax (Invitrogen, Karlsruhe, Germany) supplemented with 10% heat inactivated human AB serum (PAN-Biotech, Aidenbach, Germany), 100 U/ml Penicillin/100 μg/ml Streptomycin (Cambrex, Cologne, Germany), 1 mM sodium pyruvate (CC Pro, Oberdorla, Germany), 20 μg/ml Gentamycin (Cambrex). 2.5 ng/ml IL-7 (PromoCell, Heidelberg, Germany) and 10 U/ml IL-2 (Novartis Pharma, Nurnberg, Germany) were also added to the TCM at this step.
(§3) Generation of pMHC/anti-CD28 coated beads, T-cell stimulations and readout was performed in a highly defined in vitro system using four different pMHC molecules per stimulation condition and 8 different pMHC molecules per readout condition.
(§4) The purified co-stimulatory mouse IgG2a anti human CD28 Ab 9.3 (Jung et al., 1987) was chemically biotinylated using Sulfo-N-hydroxysuccinimidobiotin as recommended by the manufacturer (Perbio, Bonn, Germany). Beads used were 5.6 μm diameter streptavidin coated polystyrene particles (Bangs Laboratories, Illinois, USA).
(§5) 800.000 beads/200 μl were coated in 96-well plates in the presence of 4×12.5 ng different biotin-pMHC, washed and 600 ng biotin anti-CD28 were added subsequently in a volume of 200 μl. Stimulations were initiated in 96-well plates by co-incubating […] CD8+ T cells with 2×10^5 washed coated beads in 200 μl TCM supplemented with 5 ng/ml IL-12 (PromoCell) for 3 days at 37° C. Half of the medium was then exchanged by fresh TCM supplemented with 80 U/ml IL-2 and incubating was continued for 4 days at 37° C. This stimulation cycle was performed for a total of three times. For the pMHC multimer readout using 8 different pMHC molecules per condition, a two-dimensional combinatorial coding approach was used as previously described (Andersen et al., 2012) with minor modifications encompassing coupling to 5 different fluorochromes. Finally, multimeric analyses were performed by staining the cells with Live/dead near IR dye (Invitrogen, Karlsruhe, Germany), CD8-FITC antibody clone SKI (BD, Heidelberg, Germany) and fluorescent pMHC multimers. For analysis, a BD LSRII SORP cytometer equipped with appropriate lasers and filters was used. Peptide specific cells were calculated as percentage of total CD8+ cells. Evaluation of multimeric analysis was done using the FlowJo software (Tree Star, Oreg., USA). In vitro priming of specific multimer+ CD8+ lymphocytes was detected by comparing to negative control stimulations.

HLA-A*24 = assay: MHC binding assay: UV-ligand exchange, beta2m ELISA (peptide exchange yield); parameters: species or system human; details: binding to HLA-A*24, β2m ELISA
From the text: Candidate peptides for T cell based therapies according to the present invention were further tested for their MHC binding capacity (affinity). The individual peptide-MHC complexes were produced by UV-ligand exchange, where a UV-sensitive peptide is cleaved upon UV-irradiation, and exchanged with the peptide of interest as analyzed. Only peptide candidates that can effectively bind and stabilize the peptide-receptive MHC molecules prevent dissociation of the MHC complexes. To determine the yield of the exchange reaction, an ELISA was performed based on the detection of the light chain (β2m) of stabilized MHC complexes. The assay was performed as generally described in Rodenko et al. (Rodenko et al., 2006).
96 well MAXISorp plates (NUNC) were coated over night with 2 ug/ml streptavidin in PBS at room temperature, washed 4× and blocked for 1 h at 37° C. in 2% BSA containing blocking buffer. […] Peptide-MHC monomers of the UV-exchange reaction were diluted 100 fold in blocking buffer. Samples were incubated for 1 h at 37° C., washed four times, incubated with 2 ug/ml HRP conjugated anti-βm for 1 h at 37° C., washed again and detected with TMB solution that is stopped with […]. Absorption was measured at 450 nm. Candidate peptides that show a high exchange yield (preferably higher than 50%, most preferred higher than 75%) are generally preferred for a generation and production of antibodies or fragments thereof, and/or T cell receptors or fragments thereof, as they show sufficient avidity to the MHC molecules and prevent dissociation of the MHC complexes.

HLA-A*02 = HLA-A*02 (Homo sapiens, UniProt P04439, D140Y/D185E/D98H/E176V/E277Q/G131W/G231S/I119V/I121R/I166T/I218V/N151K/N90K/P208A/P217A/Q86G/Q94H/R138H/R169H); assay: as above; details: binding to HLA-A*02, β2m ELISA
[2] = system: CD8+ T cells of healthy HLA-A*02+ donors; assay: In vitro immunogenicity: priming of CD8+ T cells with aAPCs loaded with HLA-A*02/peptide complexes and anti-CD28, multimer staining; type: cell-based, human; details: HLA-A*02 peptides of Table 12B
Protocol: CD8+ T cells were primed using artificial APCs coated with anti-CD28 mAb and HLA-A*02 in complex with SEQ ID NO: 2 peptide (FIG. 4A, left panel), SEQ ID NO: 9 peptide (FIG. 4B, left panel) and SEQ ID NO: 331 peptide (FIG. 4C, left panel), respectively. After three cycles of stimulation, the detection of peptide-reactive cells was performed by 2D multimer staining with A*02/SEQ ID NO: 2 (A), A*02/SEQ ID NO: 9 (B) or A*02/SEQ ID NO: 331 (C). Right panels (FIGS. 4A, 4B and 4C) show control staining of cells stimulated with irrelevant A*02/peptide complexes. Viable singlet cells were gated for CD8+ lymphocytes. Boolean gates helped excluding false-positive events detected with multimers specific for different peptides. Frequencies of specific multimer+ cells among CD8+ lymphocytes are indicated.
as §1
In order to perform in vitro stimulations by artificial antigen presenting cells loaded with peptide-MHC complex (pMHC) and anti-CD28 antibody, the inventors first isolated CD8+ T cells from fresh HLA-A*02 leukapheresis products via positive selection using CD8 microbeads (Miltenyi Biotec, Bergisch-Gladbach, Germany) of healthy donors obtained from the University clinics Mannheim, Germany, after informed consent.
as §2, §3, §4
pMHC used for positive and negative control stimulations were A*0201/MLA-001 (peptide […] (SEQ ID NO. 418) from modified Melan-A/MART-1) and A*0201/DDX5-001 ([…] from DDX5, SEQ ID NO. 419), respectively.
as §5, with “Peptide specific cells were calculated as percentage of total CD8+ cells. Evaluation of multimeric analysis was done using the FlowJo software (Tree Star, Oreg., USA). In vitro priming of specific multimer+ CD8+ lymphocytes was detected by comparing to negative control stimulations.” left out

Substance | Peptide exchange (MHC class I binding score, peptide exchange yield) (HLA-A*24) | Peptide exchange (MHC class I binding score, peptide exchange yield) (HLA-A*02) | Wells positive [%] [1] | Wells positive [%] [2]
104 (SYLTWHQQI; listed as Homo sapiens) [compound 104] | ++++ (>= 75% = ++++) | – | + (<20% = +) | –
96 (YYTQYSQTI; listed as Homo sapiens) [compound 96] | ++++ (>= 75% = ++++) | – | + (<20% = +) | –
144 (VFASLPGFLF; listed as Homo sapiens) [compound 144] | ++++ (>= 75% = ++++) | – | ++ (20%-49% = ++) | –
132 (RYPALFPVL; listed as Homo sapiens) [compound 132] | ++++ (>= 75% = ++++) | – | + (<20% = +) | –
99 (QYILAVPVL; listed as Homo sapiens) [compound 99] | ++++ (>= 75% = ++++) | – | +++ (50%-69% = +++) | –
137 (EYLHNCSYF; listed as Homo sapiens) [compound 137] | ++++ (>= 75% = ++++) | – | + (<20% = +) | –
155 (IYKWITDNF; listed as Homo sapiens) [compound 155] | ++++ (>= 75% = ++++) | – | ++ (20%-49% = ++) | –
109 (LFITGGQFF; listed as Homo sapiens) [compound 109] | ++++ (>= 75% = ++++) | – | ++ (20%-49% = ++) | –
114 (QYLDGTWSL; listed as Homo sapiens) [compound 114] | ++++ (>= 75% = ++++) | – | +++ (50%-69% = +++) | –
163 (RYLTISNLQF; listed as Homo sapiens) [compound 163] | ++++ (>= 75% = ++++) | – | + (<20% = +) | –
156 (YYMELTKLLL; listed as Homo sapiens) [compound 156] | ++++ (>= 75% = ++++) | – | + (<20% = +) | –
120 (GYIEHFSLW; listed as Homo sapiens) [compound 120] | ++++ (>= 75% = ++++) | – | ++ (20%-49% = ++) | –
140 (RYLINSYDF; listed as Homo sapiens) [compound 140] | ++++ (>= 75% = ++++) | – | +++ (50%-69% = +++) | –

More lines, main results first:

Peptide exchange (MHC class I binding score, peptide exchange yield) (HLA-A*24) | Peptide exchange (MHC class I binding score, peptide exchange yield) (HLA-A*02) | Substance | Wells positive [%] [1] | Wells positive [%] [2]
– | +++ (50%-75% = +++) | 331 (AIWKELISL; listed as Homo sapiens) [compound 331] | – | ++ (20%-49% = ++)
++++ (>= 75% = ++++) | – | 186 (VFTTSSNIF; listed as Homo sapiens) [compound 186] | + (<20% = +) | –
++++ (>= 75% = ++++) | – | 170 (QYPFHVPLL; listed as Homo sapiens) [compound 170] | +++ (50%-69% = +++) | –
++++ (>= 75% = ++++) | – | 380 (VYTGIDHHW; listed as Homo sapiens) [compound 380] | + (<20% = +) | –
++++ (>= 75% = ++++) | – | 182 (AYAQLGYLLF; listed as Homo sapiens) [compound 182] | +++ (50%-69% = +++) | –
++++ (>= 75% = ++++) | – | 356 (NYMPGQLTI; listed as Homo sapiens) [compound 356] | + (<20% = +) | –
++++ (>= 75% = ++++) | – | 172 (VFIFKGNEF; listed as Homo sapiens) [compound 172] | + (<20% = +) | –
++++ (>= 75% = ++++) | – | 365 (VFIDHPVHL; listed as Homo sapiens) [compound 365] | + (<20% = +) | –
++++ (>= 75% = ++++) | – | 166 (FYTLPFHLI; listed as Homo sapiens) [compound 166] | ++++ (>= 70 % = ++++) | –
++++ (>= 75% = ++++) | – | 359 (NYGVLHVTF; listed as Homo sapiens) [compound 359] | + (<20% = +) | –
